Laboratory results reported in paper PMC3646032 (PLoS ONE, 2013).
Several values for one entry are separate records, joined by “and”; a condition that tells them apart may be missing. Equal values may be shown once.

Columns and labels:
MtSK [1] = biological target: T1, MtSK (Mycobacterium tuberculosis, UniProt P9WPY3); assay: biochemical; assay type: binding; settings: 298.15 K, Hepes, pH 7.6
[2] = biological target: EcSK (aroL-encoded SK from Erwinia chrysanthemi); parameters: method as in PMID 11369852; settings: cited from earlier work
[3] = tested on: E. coli SKII (aroL-encoded); settings: cited from earlier work
MtSK [4] = biological target: T1, MtSK; settings: cited from earlier work
[5] = biological target: M. tuberculosis Shikimate Kinase (MtSK) (Mycobacterium tuberculosis, UniProt P9WPY3); assay type: biochemical
[6] = tested on: EcSK (SK from Erwinia chrysanthemi); parameters: method as in PMID 11369852; settings: cited from earlier work
MtSK [7] = biological target: T1, MtSK; assay: Equilibrium fluorescence spectroscopy, intrinsic tyrosine fluorescence; assay type: binding; settings: 25°C, pH 7.6
Description: MtSK intrinsic protein fluorescence measurements were carried out to both determine the order of substrate/product addition/dissociation on/from the catalytic site and distinguish the enzyme kinetic mechanism. As MtSK has no tryptophan residues, changes in protein tyrosine fluorescence (the polypeptide chain of MtSK has 3 Tyr residues) upon ligand binding were monitored. Fluorescence measurements were carried out in a RF-5301 PC Spectrofluorophotometer (Shimadzu) at 25°C. Excitation wavelength was 280 nm and emission spectra were collected from 300 to 500 nm. The maximum values of fluorescence intensity at 315 nm values were plotted as a function of increasing ligand concentration. Excitation and emission slits were 5 nm. As protein tyrosine typically has a low sensitivity (low molar absorption coefficient and low fluorescence quantum yield), MtSK concentration for binding experiments was 10 µM. […]
Equilibrium fluorescence spectroscopy data were fitted to Eq. 4, in which F is the observed fluorescence, F 0 is the initial fluorescence, F ∞ is the maximum change in fluorescence at saturating ligand (L) concentration, and K D represents the equilibrium dissociation constant for protein:ligand binary complex formation.

[8] = 1-COOH, in solution; cited from earlier work
[9] = tested on: E. coli SKI (aroK-encoded); settings: cited from earlier work

M. tuberculosis Shikimate Kinase (MtSK), sequence (P9WPY3 2-176): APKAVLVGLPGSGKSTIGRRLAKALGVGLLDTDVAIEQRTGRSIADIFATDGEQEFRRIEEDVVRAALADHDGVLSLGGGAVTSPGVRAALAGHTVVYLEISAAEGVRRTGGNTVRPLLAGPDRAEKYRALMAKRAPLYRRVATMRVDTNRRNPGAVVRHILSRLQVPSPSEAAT
T1 sequence (P9WPY3 2-176): as above

## Nc1ncnc2c1ncn2[C@@H]1O[C@H](COP(=O)(O)OP(=O)(O)O)[C@@H](O)[C@H]1O [ADP, adenosine 5′-diphosphate]
MtSK [1]
  -TΔS: 7.9 (±0.2) kcal mol^−1
  Kd: 562 µM
  ΔG: −4.4 (±0.2) kcal mol^−1
  ΔH: −12.4 (±0.2) kcal mol^−1
  ΔS: −27 (±1) cal mol^−1 K^−1

## Nc1ncnc2c1ncn2[C@@H]1O[C@H](COP(=O)(O)OP(=O)(O)OP(=O)(O)O)[C@@H](O)[C@H]1O [ATP, adenosine 5'-triphosphate]
[2]
  Kd: 2600 µM
[3]
  K MgATP: 160 µM
  k cat/KMgATP: 200000 M⁻¹ s⁻¹
MtSK [1]
  -TΔS: 0.044 (±0.007) kcal mol^−1
  Kd: 196 µM
  ΔG: −5.1 (±0.8) kcal mol^−1
  ΔH: −5.1 (±0.3) kcal mol^−1
  ΔS: −0.15 (±0.02) cal mol^−1 K^−1
MtSK [4]
  K MgATP: 83 (±4) µM
  k cat/KMgATP: 530000 M⁻¹ s⁻¹
[5]; pH 7.6
  K MgATP (Michaelis constant): 112 µM and 112 (±4) µM
[5]; true steady-state, 25°C, pH 7.6
  k cat/KMgATP: 5.4 (±0.7)×10^5 M^−1 s^−1
[6]
  K MgATP: 620 µM
  k cat/KMgATP: 56000 M⁻¹ s⁻¹

## O=C(O)C1=C[C@@H](OP(=O)(O)O)[C@@H](O)[C@H](O)C1 [S3P, shikimate 3-phosphate]
MtSK [1]
  binding to free enzyme detected by ITC: no binding
MtSK [7]
  change in intrinsic protein fluorescence upon binding to free MtSK: No change in protein fluorescence

## O=C(O)C1=C[C@@H](O)[C@@H](O)[C@H](O)C1 [SKH, [3R-(3α,4α,5β)]3,4,5-trihydroxy-1-cyclohexene-1-carboxylic acid]
[3]
  K SKH: 200 µM
[8]
  pK a: 4.47
[6]
  K SKH: 310 µM
[9]
  K SKH: 20×10 ^3 µM
  KSKH: 20 mM

## c1c[nH]cn1 [imidazole]
[5]; 50 mM imidazole in assay mixture
  enzyme inhibition of MtSK activity: No enzyme inhibition
[5]; assay mixture containing 50 mM imidazole (9.2 U mL^−1 in its absence)
  enzyme velocity of MtSK: 9.5 U mL^−1
